# Test results reported in article PMC7577563 (Journal of medicinal chemistry, 2019).
# Square brackets hold non-standard residues; d marks the D form. Peptide text beside a SMILES is read from it. Tyr(SO2F) = N[C@@H](Cc1ccc(OS(=O)(=O)F)cc1)C(=O)O; NMeA = CN[C@@H](C)C(=O)O
# Legend:
# Plasma stability = type: in vitro ADME; settings: mouse plasma
Compound,Aqueous stability at physiological pH (Chemical),Plasma stability (Plasma stability)
CN[C@@H](C)C(=O)N[C@@H](CNC(=O)c1ccc(S(=O)(=O)F)cc1)C(=O)N1CCC[C@H]1C(=O)N[C@@H](Cc1ccccc1)C(N)=O [Compound 2],the least stable,–
CN[C@@H](C)C(=O)N[C@@H](CNCc1ccc(S(=O)(=O)F)cc1)C(=O)N1CCC[C@H]1C(=O)N[C@@H](Cc1ccccc1)C(N)=O [Compound 3],intermediate stability,–
CN[C@@H](C)C(=O)N[C@@H](Cc1ccc(OS(=O)(=O)F)cc1)C(=O)N1CCC[C@H]1C(=O)N[C@@H](Cc1ccccc1)C(N)=O [Compound 4] (H-[NMeA][Tyr(SO2F)]PF-NH2),the most stable,–
"CN[C@@H](C)C(=O)N[C@@H](CNCc1ccc(S(=O)(=O)F)cc1)C(=O)N1CCC[C@H]1C(=O)N[C@@H]1CCc2c(F)cccc21 [Compound 11, 4-((((S)-3-((S)-2-(((R)-4-fluoro-2,3-dihydro-1H-inden-1-yl)carbamoyl)pyrrolidin-1-yl)-2-((S)-2(methylamino)propanamido)-3-oxopropyl)amino)methyl)benzenesulfonyl fluoride]",–,completely degraded in plasma after 40 minutes
